The values that follow come from patent publication US5219859A, “Indole derivatives, preparation processes and medicinal products containing them” (Lipha, Lyonnaise Industrielle Pharmaceutique, priority 1991, dated 1993).

For assay [1], the target named is T1, aortic ACAT (acylcoenzyme A:cholesterol acyltransferase) (Oryctolagus cuniculus, UniProt A0A5F9CPP4).
T1 construct: the aorta is removed, dissected and homogenised in order to prepare the microsomal fraction of it by ultracentrifugation; from tissue; host or cells: aorta microsomes of cholesterol-fed male New Zealand rabbits
T1 sequence (A0A5F9CPP4 1-555): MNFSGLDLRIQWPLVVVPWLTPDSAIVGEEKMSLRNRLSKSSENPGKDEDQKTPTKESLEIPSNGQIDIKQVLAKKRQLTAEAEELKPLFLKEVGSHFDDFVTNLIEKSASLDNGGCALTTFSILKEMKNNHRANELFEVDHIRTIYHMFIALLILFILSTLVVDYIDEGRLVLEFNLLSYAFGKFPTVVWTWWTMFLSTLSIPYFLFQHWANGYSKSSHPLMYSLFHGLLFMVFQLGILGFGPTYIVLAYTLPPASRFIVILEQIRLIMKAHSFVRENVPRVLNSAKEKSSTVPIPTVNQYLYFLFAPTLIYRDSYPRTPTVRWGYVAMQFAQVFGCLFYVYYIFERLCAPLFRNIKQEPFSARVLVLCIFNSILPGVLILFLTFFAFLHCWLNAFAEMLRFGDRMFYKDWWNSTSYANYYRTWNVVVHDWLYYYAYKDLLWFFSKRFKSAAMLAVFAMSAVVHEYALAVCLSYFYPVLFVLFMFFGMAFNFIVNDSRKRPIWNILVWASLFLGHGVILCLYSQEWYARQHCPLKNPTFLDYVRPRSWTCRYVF
In words: Test A: measurement of the inhibition of aortic ACAT in vitro in rabbits. The class given is biochemical, male New Zealand rabbits. As to conditions: microsomal fraction of aorta of rabbits on a diet enriched with 1.25% of cholesterol; [^14 C]oleylcoenzyme A; read-out: 50% inhibitory concentration (IC50), concentration of compound which inhibits the ACAT activity by 50%. As for the experimental part: Test A: measurement of the inhibition of aortic ACAT in virro in rabbits: male New Zealand rabbits weighing between 2.2 and 2.5 kg, subjected beforehand for 15 days to a diet enriched with 1.25% of cholesterol, are sacrificed by cervical dislocation; the aorta is removed, dissected and homogenised in order to prepare the microsomal fraction of it by ultracentrifugation; these microsomes are incubated in the presence of [^14 C]oleylcoenzyme A in accordance with the method described by P. J. GILLIES et al., Exp. and Mol. Pathol., 1986, 44, 329-339; the lipids are extracted from the incubate with a methanol/chloroform mixture and the [^14 C]oleylcholesterol is separated by TLC: the latter compound represents a measure of the ACAT activity, and the results were expressed in the form of a 50% inhibitory concentration (IC50), representing the concentration of compound which inhibits the ACAT activity by 50%.

The test system of a further assay is blood cholesterol level. In words: Test B: measurement of the hypocholesterolaemic effect in rodents. Format: in vivo, male Wistar rats. The note with it: Rattus norvegicus, po; rats, diet enriched with 2.5% of cholesterol for 8 days; orally, 24 hours and 4 hours before sacrifice; read-out: 25% effective dose (ED25), quantity of compound which lowers the blood cholesterol level by 25%. As for the experimental part: Test B: measurement of the hypocholesterolaemic effect in rodents: male Wistar rats weighing 200-220 g are subjected to a diet enriched with 2.5% of cholesterol for 8 days; on the last two days, they are treated orally with the test product 24 hours and 4 hours before being sacrificed by exsanguination: the blood cholesterol level is evaluated on an aliquot fraction of serum by an automated enzymatic method. The results are expressed in the form of a 25% effective dose (ED25) in mg per kg of body weight, representing the quantity of compound which lowers the blood cholesterol level by 25%.

Assay [2] relates to intestinal absorption of cholesterol. Nature of the assay: Test C: measurement of the inhibition of intestinal absorption in rats. The class given is in vivo, male Wistar rats. As to conditions: Rattus norvegicus, po, fasted 24 hours, orally, with Triton WR-1339 I.V., [^3 H]cholesterol orally one hour later, blood three hours later, read-out: 50% effective dose (ED50), quantity of compound which inhibits the intestinal absorption of cholesterol by 50%. How it is done: Test C: measurement of the inhibition of intestinal absorption in rats; male Wistar rats weighing 230-250 g, fasted for 24 hours, are treated simultaneously with the test product administered orally and with Triton WR-1339 administered I.V.; one hour later, they are again treated orally with [^3 H]cholesterol; three hours later, under ether anaesthesia, 1 ml of blood is withdrawn from the animals' retro-orbital sinus: the blood radioactivity, evaluated on 0.1 ml of serum, represents a measure of the absorption of the [^3 H]cholesterol administered. The results are expressed in the form of a 50% effective dose (ED50) in mg per kg of body weight, representing the quantity of compound which inhibits the intestinal absorption of cholesterol by 50%.

The subject of the next assay is blood sugar level. In words: Test D: measurement of the hypoglycaemic effect. As to conditions: mice, orally, dose of 60 mg.kg, one hour. The class given is in vivo, male Swiss mice. As for the experimental part: Test D: measurement of the hypoglycaemic effect: male Swiss mice weighing 26-28 g are treated orally with the test product. One hour later, the animals are sacrificed by exsanguination, and the blood sugar level is measured on an aliquot fraction of plasma by an enzymatic method employing glucose oxidase.

In general, ED50 refers to the dose that gives a 50% effect, or the effect in half of the subjects. With `CC(C)c1cccc(C(C)C)c1NC(=O)NCC1(c2cn(C)c3ccccc23)CCCC1` [compound No. 1, N^1-(2,6-Diisopropylphenyl)-N^2-[1-(1-methyl-3-indolyl)-cyclopentylmethyl]urea], the IC50 in assay [1] is 46 nM. Besides, the ED25 with blood cholesterol level came out at 0.098 mg/kg. In addition, the ED50 in assay [2] was found to be 0.176 mg/kg. Further, the “significant lowering of the blood sugar level” value in the assay with blood sugar level was 21%.
